Values quoted from earlier work in patent EP1815850B1, “Controlled release formulation of divalproic acid and its derivatives” (TEVA PHARMACEUTICAL INDUSTRIES LTD., priority 2006, dated 2007).

Conditions: in adults

- elimination half-life: six and seventeen
Compound: CCCC(CCC)C(=O)O [valproic acid, 2-Propylpentanoic acid]
